Experimental data: patent US20150111864A1, “CRYSTALLINE FORM OF A BETA-LACTAMASE INHIBITOR” (Cubist Pharmaceuticals, Inc., priority 2013, published 2015)
“Also recorded” adds a separate entry of the source. Where a name gives a salt, the structure may show the parent alone.

Tests used:
Type in all cases: physicochemical
[1] = Static stability / storage of solid forms, checked by XRPD
Protocol: The samples were analysed by XRPD and, where appropriate, by DSC, TGA, VT-XRPD and ^1H NMR. Static stability at 25° C./96% RH and 40° C./75% RH was also investigated.
This material was analysed by XRPD TGA, GVS, and mDSC. Static stability experiments were carried out under ambient conditions and also at 25° C./96% RH and 40° C./75% RH. Finally this material was used as input material for the polymorphism screen (see Table 6).

[2] = Gravimetric Vapour Sorption (GVS)
Protocol: Sorption isotherms were obtained using a SMS DVS Intrinsic moisture sorption analyser, controlled by DVS Intrinsic Control software v1.0.1.2 (or v 1.0.1.3). The sample temperature was maintained at 25° C. by the instrument controls. The humidity was controlled by mixing streams of dry and wet nitrogen, with a total flow rate of 200 ml/min The relative humidity was measured by a calibrated Rotronic probe (dynamic range of 1.0-100% RH), located near the sample. The weight change, (mass relaxation) of the sample as a function of % RH was constantly monitored by the microbalance (accuracy±0.005 mg). Typically 5-20 mg of sample was placed in a tared mesh stainless steel basket under ambient conditions. The sample was loaded and unloaded at 40% RH and 25° C. (typical room conditions). A moisture sorption isotherm was performed as outlined below (2 scans giving 1 complete cycle or 4 scans giving 2 complete cycles). The standard isotherm was performed at 25° C. at 10% RH intervals over a 0-90% RH range. Data analysis was undertaken in Microsoft Excel using DVS Analysis Suite v6.2 (or 6.1 or 6.0). Table 2 details the method parameters for SMS DVS intrinsic experiments.
The sample was recovered after completion of the isotherm and re-analysed by XRPD.

Aqueous solubility = experiment: Aqueous solubility
XRPD after ball milling = experiment: XRPD after ball milling
[3] = Static stability / storage of solid forms, checked by XRPD; remark: listed apart in the source
[4] = Drying of solid forms, form checked by XRPD; details: for Filtration and air drying for 30 min: air drying 30 min

NCCCc1nnc([C@@H]2CC[C@@H]3CN2C(=O)N3OS(=O)(=O)O)o1 [Form 5, (2S,5R)-2-(5-(3-aminopropyl)-1,3,4-oxadiazol-2-yl)-7-oxo-1,6-diazabicyclo[3.2.1]octan-6-yl hydrogen sulfate]
Stability relative to the amorphous solid form and other crystalline forms [1]: more stable than other crystalline forms; also recorded: improved stability | Change of XRPD pattern over time (FIG. 2) ([1]; 25° C. and 40% relative humidity, t=0 and t=2 days): little to no change | Storage at 25° C./96% RH for 1 week ([1]; 25° C./96% RH, 1 week): No change in form or crystallinity | Storage at 40° C./75% RH for 1 week ([1]; 40° C./75% RH, 1 week): No change in form or crystallinity | Relative stability of crystalline forms at ambient conditions ([1]; ambient conditions (25° C. and 40% RH)): most stable crystalline form | XRPD post GVS ([2]; after GVS isotherm): Form 5. No change in crystallinity | GVS Mass change ([2]; from 0-90% RH, 25° C.): Mass change of 9.73% from 0-90% RH | Aqueous solubility (24 hrs at 25°): solid form of residue (Aqueous solubility): Residue was Form 5 | Aqueous solubility (24 hrs at 25°) (Aqueous solubility; pH 4.85): 13.1 mg/ml (pH 4.85). | XRPD after ball milling (20 min) (XRPD after ball milling): No change in form but loss | Storage in vacuum oven at 25° C. ([3]; 25° C., after 5 days): No change in form or crystallinity | Storage in vacuum oven at 50° C. ([3]; 50° C., after 24 h): Sample almost completely amorphous

NCCCc1nnc([C@@H]2CC[C@@H]3CN2C(=O)N3OS(=O)(=O)O)o1 [Amorphous Solid, (2S,5R)-2-(5-(3-aminopropyl)-1,3,4-oxadiazol-2-yl)-7-oxo-1,6-diazabicyclo[3.2.1]octan-6-yl hydrogen sulfate]
Static Stability - 25° C./96% RH: time to conversion to Form 5 ([1]; 25° C./96% RH): Conversion to Form 5 within 15 minutes | Static Stability - 40° C./75% RH: time to conversion to Form 5 ([1]; 40° C./75% RH): Conversion to Form 5 within 15 minutes | Static Stability - ambient ([1]; ambient conditions, XRPD): Form 5 peaks observed after 36 days (although | GVS (water uptake, in words) ([2]; 25° C., resulting solid was Form 5 by XRPD): Rapid uptake of water from 40-60%

NCCCc1nnc([C@@H]2CC[C@@H]3CN2C(=O)N3OS(=O)(=O)O)o1 [Form 9, (2S,5R)-2-(5-(3-aminopropyl)-1,3,4-oxadiazol-2-yl)-7-oxo-1,6-diazabicyclo[3.2.1]octan-6-yl hydrogen sulfate]
Storage at 25° C./96% RH for 24 h ([1]; 25° C./96% RH): Conversion to Form 5 | Storage at 40° C./75% RH for 24 h ([1]; 40° C./75% RH): Conversion to Form 5 | Storage at ambient conditions for 24 h [1]: No change in form | Drying in at 5 mmHg/25° C. overnight ([4]; 5 mmHg, 25° C., overnight): No change in form

NCCCc1nnc([C@@H]2CC[C@@H]3CN2C(=O)N3OS(=O)(=O)O)o1 [Form 6, (2S,5R)-2-(5-(3-aminopropyl)-1,3,4-oxadiazol-2-yl)-7-oxo-1,6-diazabicyclo[3.2.1]octan-6-yl hydrogen sulfate]
Storage at 25° C./96% RH for 24 h ([1]; 25° C./96% RH): Conversion to Form 5 | Storage at 40° C./75% RH for 24 h ([1]; 40° C./75% RH): Conversion to Form 5 | Filtration and air drying for 30 min [4]: No change in form

NCCCc1nnc([C@@H]2CC[C@@H]3CN2C(=O)N3OS(=O)(=O)O)o1 [Form 7, (2S,5R)-2-(5-(3-aminopropyl)-1,3,4-oxadiazol-2-yl)-7-oxo-1,6-diazabicyclo[3.2.1]octan-6-yl hydrogen sulfate]
Storage at 25° C./96% RH for 24 h ([1]; 25° C./96% RH): Conversion to Form 5 | Storage at 40° C./75% RH for 24 h ([1]; 40° C./75% RH): Conversion to Form 5 | Storage at ambient conditions for 24 h [1]: No change in form | Filtration and air drying for 30 min [4]: No change in form
